Laboratory results: patent US20210246455A1, “MULTIPLEX ASSAY” (priority 2017, published 2021)
“Also recorded” adds a separate entry of the source. Like-named read-outs stand apart in the source and are kept apart here.

How the values were obtained:
[1] = tested on: 53BP1 foci (DNA double strand breaks) in U2OS^A:Tox^DUPR reporter cells; experiment: 53BP1-mCerulean foci per nuclei in U2OS^A:Tox^DUPR reporter cells; type: cell-based, human; details: for number of 53BP1 foci per nuclei: exposed for 8 hr, compared to DMSO/vehicle
Protocol: U2OS acceptor cells were co-transfected a construct containing the recombinase B×b1 and a mutlicistronic Tox reporter (named U2OS^A:Tox^DUPR) carrying three fluorescently labeled proteins: 53BP1-mCerulean that binds to DNA double strand breaks, H2B-mCherry and XBP1Δ-Venus which is a UPR stress related sensor. […] NCS inhibits DNA synthesis, G2 cycle arrest, apoptosis. […] Cells were plated in glass bottom well 384 well plates. To evaluate the specificity of the reporter, together with DNA inducers, three other compounds were used as controls. Thapsigargin, which induced UPR-related stress by inhibiting calcium uptake into ER (Ca^2+ is chaperone cofactor so protein folding is inhibited), tunicamycin that is also involved in UPR-related stress by inhibiting glycosylation of newly synthesized proteins, and aphidicolin which inhibits DNA replication in eukaryotes. All compounds were tested in tetraplicates in four ten-fold serial dilutions with data collection 8 hour after compound addition. Images were acquired in a Nikon Ti-E inverted Microscope equipped with motorized stage with autofocus and OkoLab stage top environmental control chamber (supplied with CO2 and temperature controlled for live cell imaging) (FIG. 11A).
The number of 53BP1-mCerulean was used as a metric for double strand breaks and DNA damage. For each assay, the images were analyzed using the open source software CellProfiler for quantification of the number of foci per nuclei and the data generated was further processed to determine compound EC50S.
Image analysis was conducted using the open source software CellProfiler. After importing the images, nuclei were identified from the H2B-mCherry images as primary objects, followed by enhancement of mCerulean structures, and detection of these enhanced structures as objects. The nuclei and the foci are related and the number of children (foci) per nuclei is counted. Data from CellProfiler was exported to Python programming language for further computation.
Using Python, the data was grouped by well and the average number of foci/nuclei determined. The wells that corresponded to the same conditions were grouped. All the data was exported to GraphPad Prism 7.0 software to generate plots. A non-linear regression was used to fit the data and to calculate the concentration where we observe 50% activity of the enhancer (EC50S) (FIG. 11B)

[2] = tested on: Ras-MAPK pathway in HEK293 multicolor stable cell line expressing KRas(G12C), C-Raf, Mek and Erk reporters; experiment: Live-cell imaging of 4-color MAPK reporter cell line (reporter localization); type: cell-based, human; details: for CRaf localization / Erk localization / KRas localization: treated for four or nine hours, relative to control
Protocol: The two-color stable cell lines were plated in 96 well glass-bottom plates overnight and treated with doxycycline at 1 μg/m1 to induce fluorescent reporter expression. Cells were treated with different compounds for four or nine hours. Cells were imaged with an epifluorescence Nikon™microscope with an OKOLab™ incubator system and images were acquired using a Plan Fluor™40× objective and NIS-Elements® software (Nikon™). An analogous procedure, using N-terminal tagged KRas(G12C), CRaf, Mek and Erk cloned into the multicistronic construct, was used to generate monoclonal, inducible 4-color cell lines with approximately balanced reporter construct expression level (FIG. 4 and FIG. 5, control)
The 4-color lines were used to visualize the MAPK pathway in live cells. HEK293 multicolor stable cell line expressing KRas(G12C), C-Raf, Mek and Erk reporters show correct localization of the 4 proteins at the plasma membrane, plasma membrane and cytoplasm, cytoplasm, nucleus, respectively (FIG. 5). Monitoring of cells under the microscope allowed visualization of the response to Ras-MAPK pathway inhibitors. To monitor response to inhibitors, after protein induction cell were treated with: GDC-0879, FR180204, lovastatin and PD0325901 for four or nine hours.

[3] = tested on: MAPK pathway activation (mCherry-Erk nuclear localization) in U2OS MAPK R19 cells expressing K-Ras(wt); experiment: MAPK reporter assay, nuclear versus cytoplasmic mCherry-Erk, U2OS MAPK R19; type: cell-based; details: Homo sapiens, read-out: IC50 (inhibition of nuclear localization of mCherry-Erk)
Protocol: (§1) Three MAPK reporter cell lines were used to visualize the MAPK pathway in live cells and to analyze dose responses of MAPK inhibitors. U2OS MAPK R19, R20 and R21 multicolor stable cell line expressing mCerulean-CRaf, untagged Mek, mCherry-Erk and Venus-KRas (wt, G12C and G12D, respectively) were plated in glass bottom well 96 well plates. Twenty-four hours after plating cells were treated with doxycycline at 1 μg/ml for 5 h to induce fluorescent reporter expression. Monitoring of cells under the microscope allowed visualization of the response to Ras-MAPK pathway inhibitors. Two inhibitors, Trametinib an inhibitor of Mekl and […], inhibitor of Mek1/2 were used in the assay. […]
(§2) For each assay, the images were analyzed using CellProfiler (open source software for image analysis, Kamensty, L. et al., Bioinformatics (2011)) for quantification of the ratio of nuclear versus cytoplasmic Erk fluorescence intensity and the data generated was further processed to determine compound IC50S.
(§3) Image analysis used the open source software CellProfiler. […] The nuclear area of each cell was subtracted from the cytoplasm area to give the final cytoplasm mask. mCherry intensity for the nucleus and the cytoplasm of each cell was calculated from the original mCherry-Erk image and the nuclear to cytoplasm ratio of mCherry intensity was calculated per cell and exported as a HDFS file for analysis. […]

[4] = tested on: MAPK pathway activation (mCherry-Erk nuclear localization) in U2OS MAPK R21 cells expressing K-Ras(G12D); experiment: MAPK reporter assay, nuclear versus cytoplasmic mCherry-Erk, U2OS MAPK R21; type: cell-based; details: Homo sapiens, read-out: IC50 (inhibition of nuclear localization of mCherry-Erk)
Protocol: as §1, §2, §3

[5] = tested on: MAPK signaling in cells expressing K-Ras(wt), K-Ras(G12C) and K-Ras(G12D); experiment: Imaging of mCherry-Erk localization in U2OS^A-Tet MAPK R19, R20 and R21 reporter cell lines; type: cell-based, human; details: exposed for 1 hr, compared to DMSO treated cells
Protocol: MAPK pathway inhibitors were tested for their ability to inhibit nuclear localization of mCherry-tagged ERK in three different cell lines expressing K-Ras wild type, K-Ras G12C or K-Ras G12D. To quantify these images we calculated the ratio of nuclear to cytoplasmic ERK in single cells for four images per sample and plotted the resulting values as a histogram.
as §1, §2

[6] = tested on: MAPK pathway activation (mCherry-Erk nuclear localization) in U2OS MAPK R20 cells expressing K-Ras(G12C); experiment: MAPK reporter assay, nuclear versus cytoplasmic mCherry-Erk, U2OS MAPK R20; type: cell-based; details: Homo sapiens, read-out: IC50 (inhibition of nuclear localization of mCherry-Erk)
Protocol: as §1, §2, §3

[7] = tested on: 53BP1 foci in Tox^DUPR reporter cells pooled with Tox^ORG reporter cells; experiment: Pooled assay, U2OS^A Tox^ORG and Tox^DUPR reporter cells mixed 1:1, 53BP1 foci per nuclei; type: cell-based, human
Protocol: U2OS^A:Tox^DUPR and U2OS^A:Tox^ORG were combined in a pooled assay with an aggregate of […] biosensors and phenotypic readouts (MTS-Venus, H2B-TagBFP, mCherry-LC3, 53BP1-cerulean, XBP1-Venus and H2B-mCherry) where DNA is differently labeled in each of the two reporter cell lines (FIG. 13).
The two U2OS^A Tox^ORG and Tox^DUPR reporter cell lines were mixed 1:1 and plated in 384 well plates 24 h before compound addition. […] NCS inhibits DNA synthesis, G2 cycle arrest, apoptosis. Both compounds are inducers of DNA double strand breaks and consequently increase the number of 53BP1 nuclear foci. Eight hours post compound addition, images were acquired in a Nikon Ti-E inverted Microscope equipped with motorized stage with autofocus and OkoLab stage top environmental control chamber (supplied with CO2 and temperature controlled for live cell imaging) (FIG. 14).

Question: `COc1cc([C@@H]2c3cc4c(cc3[C@@H](O[C@@H]3O[C@@H]5CO[C@@H](C)O[C@H]5[C@H](O)[C@H]3O)[C@H]3COC(=O)[C@H]23)OCO4)cc(OC)c1O` [Etoposide] was tested. Which EC50 ([1]; Homo sapiens, 8 hour after compound addition, read-out: EC50 (number of 53BP1 foci/nuclei)) did it give?
Answer: Its EC50 is 161 nM.

Question: Which CRaf localization [2] does the source give for `Nc1[nH]nc2nnc(-c3c(-c4ccccc4)nn4ccccc34)cc12` [FR180204] here?
Answer: The CRaf localization was “moderate increase of CRaf levels at the plasma membrane”.

Question: `CC[C@H](C)C(=O)O[C@H]1C[C@@H](C)C=C2C=C[C@H](C)[C@H](CC[C@@H]3C[C@@H](O)CC(=O)O3)[C@H]21` [Lovastatin] was tested. Which “displacement of KRas from the cell membrane” value ([2]; ***p<0.0001) did it give?
Answer: The value was “significant displacement of KRas from the cell membrane”.

Question: And the CRaf localization [2]?
Answer: The CRaf localization was “C-Raf is not enriched at the membrane”.

Question: And the Erk localization [2]?
Answer: Its Erk localization is “changes its localization to the cytoplasm”.

Question: And the KRas localization [2]?
Answer: The KRas localization was “absence of KRas at the membrane”.

Question: For `O=C(NOC[C@H](O)CO)c1ccc(F)c(F)c1Nc1ccc(I)cc1F` [PD 0329501], which IC50 ([3]; 1 h) is on record?
Answer: Its IC50 is 9 nM.

Question: And the CRaf localization [2]?
Answer: The CRaf localization was “none of Mek upstream proteins (KRas and C-Raf) showed alteration in localization”.

Question: What about the Erk localization [2] of the same molecule?
Answer: Its Erk localization is “redistribution of the downstream effector, Erk, from the nucleus to the cytoplasm”.

Question: And the KRas localization [2]?
Answer: The KRas localization was “none of Mek upstream proteins (KRas and C-Raf) showed alteration in localization”.

Question: And the IC50 ([4]; 1 h)?
Answer: Its IC50 is 76 nM.

Question: What about the mCherry-Erk localization [5] of the same molecule?
Answer: Its mCherry-Erk localization is “increase of mCherry-Erk at the cytoplasm”.

Question: And the IC50 ([6]; 1 h)?
Answer: The IC50 was 13 nM.

Question: `CC(=O)Nc1cccc(-n2c(=O)n(C3CC3)c(=O)c3c(Nc4ccc(I)cc4F)n(C)c(=O)c(C)c32)c1` [Trametinib] was tested. Which IC50 ([3]; cells expressing K-Ras(wt), 1 hour after compound addition) did it give?
Answer: The IC50 was 9 nM.

Question: What about the IC50 ([4]; cells expressing K-Ras(G12D), 1 hour after compound addition) of the same molecule?
Answer: Its IC50 is 28 nM.

Question: What about the IC50 ([6]; cells expressing K-Ras(G12C), 1 hour after compound addition) of the same molecule?
Answer: Its IC50 is 55 nM.

Question: Which “number of 53BP1 foci per nuclei” value [1] does the source give for `C[C@@]1(CO)[C@H](O)CC[C@@]2(C)[C@H]1CC[C@H]1C[C@@H]3C[C@@]12CC[C@]3(O)CO` [aphidicolin] here?
Answer: The value was “do not show any effect in the number of 53BP1 foci”.

Question: How did the “number of 53BP1 foci per nuclei” value [1] turn out when `C/C=C(/C)C(=O)O[C@H]1C(C)=C2[C@H]([C@@H]1OC(=O)CCCCCCC)[C@@](C)(OC(C)=O)C[C@H](OC(=O)CCC)[C@@]1(O)[C@H]2OC(=O)[C@@]1(C)O` [thapsigargin, Thapsigargin] was run?
Answer: The value was “do not show any effect in the number of 53BP1 foci”.

Question: neocarzinostatin [NCS] was tested. Which “number of 53BP1 foci per nuclei” value ([7]; pooled Tox^ORG and Tox^DUPR cells, 8 hr, compared to vehicle) did it give?
Answer: Its value is “increase in the number of foci/nuclei specifically in Tox^DUPR reporter cells; also recorded: increase in the number of foci per nuclei”.

Question: And the “EC50 (number of 53BP1 foci/nuclei)” value ([7]; pooled with other reporter cell lines (FIG. 14), eight hours post compound addition)?
Answer: The value was 376 µg/mL.

Question: What about the “EC50 (number of 53BP1 foci/nuclei)” value ([1]; 8 hour after compound addition) of the same molecule?
Answer: Its value is 0.257 µg/mL.

Question: What about the “number of 53BP1 foci per nuclei” value [1] of the same molecule?
Answer: Its value is “increase in the number of foci per nuclei”.

Question: What about the “EC50 (number of 53BP1 foci/nuclei)” value ([1]; reporter cells assayed by itself (FIG. 11B)) of the same molecule?
Answer: The value was 257 µg/mL.

Question: How did the “number of 53BP1 foci per nuclei” value [1] turn out when tunicamycin was run?
Answer: The value was “do not show any effect in the number of 53BP1 foci”.
